From patent US8912120B2, “Herbicidal compositions comprising 4-amino-3-chloro-5-fluoro-6-(4-chloro-2-fluoro-3-methoxyphenyl) pyridine-2-carboxylic acid or a derivative thereof and synthetic auxin herbicides” (Dow AgroSciences, LLC., priority 2012, dated 2014)
Counter-ions that a name gives are not always drawn.

Experiments:
[1] = tested on: CYPRO; test: Example II: in-water applied herbicidal mixtures, weed control in transplanted paddy rice (greenhouse), CYPRO; format: in vivo, Cyperus rotundus (purple nutsedge); settings: in-water application
Description: (§1) The prepared mud was dispensed in 365 mL aliquots into 16-ounce (oz.) non-perforated plastic pots with a surface area of 86.59 square centimeters (cm^2) leaving a headspace of 3 centimeters (cm) in each pot Mud was allowed to dry overnight prior to planting or transplanting. Rice seeds were planted in Sun Gro MetroMix® 306 planting mixture, which typically has a pH of 6.0 to 6.8 and an organic matter content of about 30 percent, in plastic plug trays. Seedlings at the second or third leaf stage of growth were transplanted into 840 mL of mud contained in 32-oz. non-perforated plastic pots with a surface area of 86.59 cm^2 4 days prior to herbicide application. […] Nutrients were added as Osmocote® (19:6:12, N:P:K^+ minor nutrients) at 2 g per 16-oz. pot and 4 g per 32-oz. pot.
(§2) Applications were made by injecting with a pipetter appropriate amounts of the application solutions, individually and sequentially, into the aqueous layer of the paddy. Control plants were treated in the same manner with the solvent blank. Applications were made so that all treated plant material received the same concentrations of acetone and crop oil concentrate.

[2] = tested on: ECHOR; test: Example II: in-water applied herbicidal mixtures, transplanted paddy rice, ECHOR; format: in vivo, Echinochloa oryzoides (early watergrass); settings: for Visual Weed Control (%) - 20 DAA ECHOR Obs / Visual Weed Control (%) - 22 DAA ECHOR Obs: in-water application
Description: as §1, §2

[3] = tested on: SCPMA; test: Example II: in-water applied herbicidal mixtures, transplanted paddy rice, SCPMA; format: in vivo; settings: for Visual Weed Control (%) Obs: 20 DAA
Description: as §1, §2

[4] = tested on: CASOB; test: Example V: postemergence herbicidal activity of mixtures in forage crops (greenhouse), CASOB; format: in vivo, Cassia obtusifolia (sicklepod); settings: alone, 50 gae/ha, foliar, approximately 21 days
Description: (§3) Seeds or root cuttings of the desired test plant species were planted in Sun Gro MetroMix® 306 planting mixture, which typically has a pH of 6.0 to 6.8 and an organic matter content of about 30 percent, in plastic pots with a surface area of 126.6 square centimeters (cm^2). […] The plants were grown for 14-60 days in a greenhouse with an approximate 14 hour photoperiod which was maintained at approximately 28° C. during the day and 24° C. during the night.
(§4) Spray solutions of the second herbicide or experimental compound mixtures were prepared by adding the stock solutions to the appropriate amount of dilution solution to form 12 mL spray solution with active ingredients in two-way combinations.

[5] = tested on: ECHCG; test: Example II: in-water applied herbicidal mixtures, transplanted paddy rice, ECHCG; format: in vivo, Echinochloa crus-galli (barnyardgrass); settings: in-water application
Description: as §1, §2

[6] = tested on: CENMA; test: Example V: postemergence herbicidal activity of mixtures in forage crops, CENMA; format: in vivo, Centaurea maculosa (spotted knapweed); settings: alone, foliar, approximately 21 days
Description: as §3, §4

[7] = tested on: SINAR; test: Example V: postemergence herbicidal activity of mixtures in forage crops, SINAR; format: in vivo, Sinapis arvensis (wild mustard); settings: alone, foliar, approximately 21 days
Description: as §3, §4

[8] = tested on: TRFRE; test: Example V: postemergence herbicidal activity of mixtures in forage crops, TRFRE; format: in vivo, Trifolium repens (white clover); settings: alone, foliar, approximately 21 days
Description: as §3, §4

[9] = tested on: AMARE; test: Example IV: postemergence foliar-applied herbicidal mixtures, weed control in cereal crops in the greenhouse, AMARE; format: in vivo, Amaranthus retroflexus (redroot pigweed); settings: alone, 20-22 days
Description: as §3, with “Seeds” for “Seeds or root cuttings”, “MetroMix” for “MetroMix®”, “103.2” for “126.6”, “7-36” for “14-60”, “about 18°” for “approximately 28°”, “17°” for “24°”
(§5) Spray solutions of the second cereal herbicide and experimental compound mixtures were prepared by adding the stock solutions to the appropriate amount of dilution solution to form 12 mL spray solution with active ingredients in two- and three-way combinations.

[10] = tested on: LEFCH; test: Example II: in-water applied herbicidal mixtures, transplanted paddy rice, LEFCH; format: in vivo, Leptochloa chinensis (Chinese sprangletop); settings: 19 DAA; 35 gae/ha
Description: as §1, §2

[11] = tested on: ECHCG; test: Example I: postemergence foliar-applied herbicidal mixtures, direct seeded rice, ECHCG; settings: 16 gae/ha
Description: The soil matrix was contained in plastic pots with a volume of 1 quart and a surface area of 83.6 square centimeters (cm^2). […] The plants were grown for 8-22 days in a greenhouse with an approximate 14 h photoperiod which was maintained at about 29° C. during the day and 26° C. during the night. Nutrients (Peters Excel® 15-5-15 5-Ca 2-Mg and iron chelate) were applied in the irrigation solution as needed and water was added on a regular basis. Supplemental lighting was provided with overhead metal halide 1000-Watt lamps as necessary. The plants were employed for testing when they reached the first through fourth true leaf stage.
Treatments consisted of the acid or esters of 4-amino-3-chloro-5-fluoro-6-(4-chloro-2-fluoro-3-methoxy-phenyl)pyridine-2-carboxylic acid (Compound A), each formulated as an SC (suspension concentrate), and various herbicidal components alone and in combination. Forms of compound A were applied on an acid equivalent basis.
For treatments comprised of formulated compounds, measured amounts of compounds were placed individually in 25 mL glass vials and diluted in a volume of 1.25% (v/v) Agri-Dex® crop oil concentrated to obtain 12× stock solutions. […] Application solutions were prepared by adding an appropriate amount of each stock solution (e.g., 1 mL) and diluted to the appropriate final concentrations with the addition of 10 mL of an aqueous mixture of 1.25% (v/v) crop oil concentrate so that the final spray solutions contained 1.25+/−0.05% (v/v) crop oil concentrate.
All stock solutions and applications solutions were visually inspected for compound compatibility prior to application. Spray solutions were applied to the plant material with an overhead Mandel track sprayer equipped with a 8002E nozzles calibrated to deliver 187 L/ha over an application area of 0.503 m^2 at a spray height of 18 to 20 inches (46 to 50 cm) above average plant canopy height. Control plants were sprayed in the same manner with the solvent blank.
The treated plants and control plants were placed in a greenhouse as described above and watered by sub-irrigation to prevent wash-off of the test compounds. After approximately 3 weeks, the condition of the test plants as compared with that of the untreated plants was determined visually and scored on a scale of 0 to 100 percent where 0 corresponds to no injury or growth inhibition and 100 corresponds to complete kill.
Colby's equation was used to determine the herbicidal effects expected from the mixtures (Colby, S. R. 1967. Calculation of the synergistic and antagonistic response of herbicide combinations. Weeds 15:20-22).
The following equation was used to calculate the expected activity of mixtures containing two active ingredients, A and B: Expected=A+B−(A×B/100)
A=observed efficacy of active ingredient A at the same concentration as used in the mixture.
B=observed efficacy of active ingredient B at the same concentration as used in the mixture.

[12] = tested on: BRSNN; test: Example IV: postemergence foliar-applied herbicidal mixtures, cereal crops, BRSNN; format: in vivo, Brassica napus (volunteer canola)
Description: as §3, with “Seeds” for “Seeds or root cuttings”, “MetroMix” for “MetroMix®”, “103.2” for “126.6”, “7-36” for “14-60”, “about 18°” for “approximately 28°”, “17°” for “24°”
as §5

[13] = tested on: POLCO; test: Example IV: postemergence foliar-applied herbicidal mixtures, cereal crops, POLCO; format: in vivo, Polygonum convolvulus (wild buckwheat); settings: alone, 35 gai/ha, foliar, 20-22 days
Description: as §3, with “Seeds” for “Seeds or root cuttings”, “MetroMix” for “MetroMix®”, “103.2” for “126.6”, “7-36” for “14-60”, “about 18°” for “approximately 28°”, “17°” for “24°”
as §5

[14] = tested on: VIOTR; test: Example IV: postemergence foliar-applied herbicidal mixtures, cereal crops, VIOTR; format: in vivo, Viola tricolor (wild pansy); settings: after 20-22 days; 140 gai/ha
Description: as §3, with “Seeds” for “Seeds or root cuttings”, “MetroMix” for “MetroMix®”, “103.2” for “126.6”, “7-36” for “14-60”, “about 18°” for “approximately 28°”, “17°” for “24°”
as §5

Compound: O=C(O)COc1ccc(Cl)cc1Cl [2,4-D Choline Salt, 2-hydroxy-N,N,N-trimethylethanaminium 2-(2,4-dichlorophenoxy)acetate, reference compound]
- Visual Weed Control (%) - 20 DAA CYPRO Obs ([1]; 240 gae/ha): 30%
- Visual Weed Control (%) - 20 DAA CYPRO Obs ([1]; 480 gae/ha): 30%
- Visual Weed Control (%) - 20 DAA ECHOR Obs ([2]; 240 gae/ha): 0%
- Visual Weed Control (%) - 20 DAA ECHOR Obs ([2]; 480 gae/ha): 20%
- Visual Weed Control (%) - 20 DAA SCPMA Obs ([3]; 240 gae/ha, in-water application): 0%
- CASOB Obs (observed value) [4]: 3%

Compound: CCCCC(CC)COC(=O)COc1ccc(Cl)cc1Cl (centres unmarked) [2,4-D EHE, 2-ethylhexyl 2-(2,4-dichlorophenoxy)acetate, reference compound]
- Visual Weed Control (%) - 22 DAA CYPRO Obs ([1]; 140 gae/ha): 0%
- Visual Weed Control (%) - 22 DAA CYPRO Obs ([1]; 280 gae/ha): 0%
- Visual Weed Control (%) - 22 DAA ECHCG Obs ([5]; 140 gae/ha): 0%
- Visual Weed Control (%) - 22 DAA ECHCG Obs ([5]; 280 gae/ha): 0%
- Visual Weed Control (%) - 22 DAA ECHOR Obs ([2]; 140 gae/ha): 0%
- Visual Weed Control (%) - 22 DAA ECHOR Obs ([2]; 280 gae/ha): 0%

Compound: Nc1nc(C2CC2)nc(C(=O)O)c1Cl [Aminocyclopyrachlor, 6-amino-5-chloro-2-cyclopropyl-4-pyrimidinecarboxylic acid, reference compound]
- CENMA Obs (observed value) ([6]; 8.75 gae/ha): 55%
- CENMA Obs (observed value) ([6]; 17.5 gae/ha): 60%
- SINAR Obs (observed value) ([7]; 8.75 gae/ha): 25%
- SINAR Obs (observed value) ([7]; 17.5 gae/ha): 45%
- TRFRE Obs (observed value) ([8]; 8.75 gae/ha): 45%
- TRFRE Obs (observed value) ([8]; 17.5 gae/ha): 55%

Compound: O=C(O)c1nc(Cl)ccc1Cl [Clopyralid, 3,6-dichloro-2-pyridinecarboxylic acid]
- AMARE Ob (observed value) ([9]; 50 gai/ha): 17%

Compound: CCCCOC(=O)c1nc(-c2ccc(Cl)c(OC)c2F)c(F)c(N)c1Cl [Compound A n-Butyl Ester]
- Visual Weed Control (%) Obs ([2]; 19 DAA, 35 gae/ha): 80%
- Visual Weed Control (%) Obs [10]: 43%
- Visual Weed Control (%) Obs ([3]; 35 gae/ha): 0%
- Visual Weed Control (%) Obs ([3]; 70 gae/ha): 0%
- Visual Weed Control (%) - 19 DAA ECHCG Obs [11]: 65%

Compound: COc1c(Cl)ccc(Cl)c1C(=O)O [Dicamba, 3,6-dichloro-2-methoxybenzoic acid]
- AMARE Ob (observed value) ([9]; 35 gai/ha): 53%
- BRSNN Ob (observed value) ([12]; alone, 35 gai/ha, foliar, 20-22 days): 8%
- POLCO Ob (observed value) [13]: 13%

Compound: C[C@@H](Oc1ccc(Cl)cc1Cl)C(=O)O [Dichlorprop-P, (2R)-2-(2,4-dichlorophenoxy)propanoic acid]
- Weed Control Ob ([12]; after 20-22 days, 140 gai/ha): 57%
- Weed Control Ob [14]: 27%
